We go through three compounds from PMC5428663, “Identification of small molecule inhibitors of Interleukin-18” (Scientific Reports, 2017).

The structures appear in SMILES notation.

The subject of experiment [1] is hIL-18 induced IFN-γ production in human KG-1 cells. Briefly: IFN-γ bioassay (hIL-18 induced IFN-γ production in KG-1 cells). Particulars: for inhibition of hIL-18 activities (IFN-γ secretion): KG-1 cells, 1 uM inhibitor, increasing hIL-18 (Fig. 4). The format is cell-based.
In experiment [2] the target is T1, hIL-18:ectvIL-18BP complex (Homo sapiens, UniProt Q14116).
T1 construct: Mature human IL-18 was cloned into a modified pET vector containing a C-terminal 6x His tag; 6x His (C); made in house; host or cells: E. coli BL21 gold (DE3) with biotin ligase for hIL-18; E. coli BL21 (DE3) Rosetta-Gami 2 for MBP-ectvIL-18BP
T1 sequence (Q14116 37-193): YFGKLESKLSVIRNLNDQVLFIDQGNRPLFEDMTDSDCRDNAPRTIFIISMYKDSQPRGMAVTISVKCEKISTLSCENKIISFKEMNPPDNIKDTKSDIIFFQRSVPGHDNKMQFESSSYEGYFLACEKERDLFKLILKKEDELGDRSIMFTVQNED
Briefly: biochemical. In kind it is binding, human; ectromelia virus. The conditions noted are these: for IC50: 5% DMSO, read-out: IC50, inhibition of hIL-18:ectvIL-18BP complex formation.

Regarding `CCOC(=O)c1ccc(Nc2sc(C(=O)c3cccc([N+](=O)[O-])c3)c(N)c2C#N)cc1` [NSC201631, ethyl 4-[[4-amino-3-cyano-5-(3-nitrobenzoyl)thiophen-2-yl]amino]benzoate], the “inhibition of hIL-18 activities (IFN-γ secretion)” value (“inhibition of hIL-18 activities” for short) in experiment [1] is listed as “did not inhibit hIL-18 activities”. Also, in experiment [2], affinity was put at a Ki of 1.6 µM, the “fold difference of calculated Ki (ELISA) vs predicted Autodock Ki” value is listed as “approximately 2 fold” and the IC50 was 44 µM.
As for `N#Cc1ccc(NC(=O)Nc2ccc(Oc3ccc(NC(=O)Nc4ccc(C#N)cc4)cc3)cc2)cc1` [NSC80734, 1-(4-cyanophenyl)-3-[4-[4-[(4-cyanophenyl)carbamoylamino]phenoxy]phenyl]urea], in experiment [1] (Homo sapiens, KG-1 cells 1 × 10^6 cells ml^−1, constant hIL-18, 24 hr, read-out: EC50, inhibition of hIL-18 induced IFN-γ production), the EC50 is roughly 0.25 µM. Further, in experiment [1], the “inhibition of hIL-18 activities” value was “best inhibition”. Besides, in experiment [2], the affinity, expressed as Ki, was 1.8 µM; the “fold difference of calculated Ki (ELISA) vs predicted Autodock Ki” value is reported as “approximately 4 fold”; the IC50 came out at 52 µM.
With `O=C(Nc1cccc(-c2nc3ccccc3[nH]2)c1)c1ccc(C(=O)Nc2cccc(-c3nc4ccccc4[nH]3)c2)cc1` [NSC61610, 1-N,4-N-bis[3-(1H-benzimidazol-2-yl)phenyl]benzene-1,4-dicarboxamide], the “inhibition of hIL-18 activities” value in experiment [1] is “small inhibitory effect”. For the same compound, in experiment [2], the Ki was 0.2 µM, the “fold difference of calculated Ki (ELISA) vs predicted Autodock Ki” value is reported as “approximately 2 fold” and the IC50 was determined as 6 µM.
